Reference: US10227331B2 (priority 2015, dated 2019)

How the values were obtained:
[1] = system: P. aeruginosa expressing IMP-1, efflux− (MB9799); assay: Efflux: concentration of MBL inhibitor which restores susceptibility to imipenem; type: cell-based, Pseudomonas aeruginosa; settings: imipenem at 2 μg/mL, in the presence of a class A, C, D serine β-lactamase inhibitor closely related to relebactam
Excerpt: (§1) The strain background is Pseudomonas aeruginosa PAO1.

[2] = target: NDM-1 (Klebsiella pneumoniae, UniProt C7C422); assay: biochemical; type: biochemical; settings: CCF2-FA substrate, 2 hours at 25° C; read-out: NDM-1 IC50
How it was run: (§2)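 Inhibitor was mixed with the metallo-β-lactamase and CCF2-FA. After 2 hours at 25° C, fluorescence of the coumarin–fluorescein cephalosporin substrate was read. IC50 was calculated with a 4-parameter fit.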

[3] = target: IMP-1 (Serratia marcescens, UniProt P52699); assay: biochemical; type: biochemical; settings: CCF2-FA substrate, 2 hours at 25° C; read-out: IMP-1 IC50
How it was run: as §2

[4] = system: P. aeruginosa expressing IMP-1, efflux+ (MB9798); type: cell-based, Pseudomonas aeruginosa; settings: for P. aeruginosa expressing IMP-1, efflux+ (MB9798) MITC95: imipenem at 2 μg/mL, in the presence of a class A, C, D serine β-lactamase inhibitor closely related to relebactam; for Efflux ratio: ratio MITC95 PA_9798/MITC95 PA_9799
Excerpt: as §1

[5] = system: Klebsiella pneumoniae expressing VIM-1 (IHMA599644); type: cell-based; settings: VIM-1 (IHMA599644), with imipenem 1 μg/ml, 95% inhibition of bacterial growth
How it was run: (§3)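 Colonies from overnight 35 °C blood-agar cultures were suspended in saline, diluted 1:100 into 1.1× CAMHB and exposed to test compound with or without imipenem at 1 μg/ml. After 22–24 h at 35 °C, absorbance was read to find the concentration restoring imipenem susceptibility.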

[6] = system: Serratia marcescens expressing IMP-1 (CL5741); type: cell-based; settings: IMP-1 (CL5741), with imipenem 1 μg/ml, 95% inhibition of bacterial growth
How it was run: as §3

[7] = system: Escherichia coli expressing NDM-1 (CLB30005, CLB30016); type: cell-based; settings: NDM-1 (CLB30016), with imipenem 1 μg/ml, 95% inhibition of bacterial growth
How it was run: as §3

[8] = target: VIM-1 (Pseudomonas aeruginosa (strain ATCC 15692 / DSM 22644 / CIP 104116 / JCM 14847 / LMG 12228 / 1C / PRS 101 / PAO1), UniProt A0A0F7KYQ8); assay: biochemical; settings: CCF2-FA substrate, 2 hours at 25° C
How it was run: as §2

Sequence of IMP-1 (P52699 whole entry, looked up, species assumed): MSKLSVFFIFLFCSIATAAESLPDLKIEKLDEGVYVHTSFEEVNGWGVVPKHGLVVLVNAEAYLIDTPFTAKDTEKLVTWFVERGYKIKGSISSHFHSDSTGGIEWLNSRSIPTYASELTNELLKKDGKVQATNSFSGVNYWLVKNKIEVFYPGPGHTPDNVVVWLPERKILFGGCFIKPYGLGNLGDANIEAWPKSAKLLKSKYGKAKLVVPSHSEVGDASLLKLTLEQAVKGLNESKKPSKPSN
Sequence of NDM-1 (C7C422 whole entry, looked up, species assumed): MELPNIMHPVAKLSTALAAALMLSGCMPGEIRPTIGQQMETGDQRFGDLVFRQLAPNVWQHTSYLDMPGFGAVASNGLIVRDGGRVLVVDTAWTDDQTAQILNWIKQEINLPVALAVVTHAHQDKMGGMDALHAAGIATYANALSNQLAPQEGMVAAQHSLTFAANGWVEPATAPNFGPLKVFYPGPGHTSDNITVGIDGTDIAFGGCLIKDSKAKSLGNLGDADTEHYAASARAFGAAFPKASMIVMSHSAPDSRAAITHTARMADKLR

Row | Structure (SMILES) | P. aeruginosa expressing IMP-1, efflux− (MB9799) MITC95 [1] [µM] | IC50 [2] [nM] | IC50 [3] [nM] | P. aeruginosa expressing IMP-1, efflux+ (MB9798) MITC95 [4] [µM] | Efflux ratio [4] | Klebsiella pneumoniae MITC95 [5] [µM] | Serratia marcescens MITC95 [6] [µM] | Escherichia coli MITC95 [7] [µM] | IC50 [8] [nM]
1 | NCCS(=O)(=O)c1ccc(-c2ccc(N)nc2)c(-c2nn[nH]n2)c1S(N)(=O)=O [Example 321, 6-((2-aminoethyl)sulfonyl)-3-(6-aminopyridin-3-yl)-2-(2H-tetrazol-5-yl) benzenesulfonamide] | 0.6406 | 1.36 | 0.949 | 1.781 | 2.78 | 1.281 | 0.4453 | 0.125 | 1.01
2 | NCCS(=O)(=O)c1ccc(-c2ccc(C3CCNCC3)cc2)c(-c2nn[nH]n2)c1S(N)(=O)=O [Example 322, 4-((2-aminoethyl)sulfonyl)-4′-(piperidin-4-yl)-2-(2H-tetrazol-5-yl)-[1,1′-biphenyl]-3-sulfonamide] | 0.7813 | 0.731 | 0.17 | 1.563 | 2.00 | 3.125 | 1.563 | 1.563 | 0.205
3 | NCCS(=O)(=O)c1ccc(-c2cccc3cc(C(N)=O)[nH]c23)c(-c2nn[nH]n2)c1S(N)(=O)=O [Example 323, 7-(4-((2-aminoethyl)sulfonyl)-3-sulfamoyl-2-(2H-tetrazol-5-yl)phenyl)-1H-indole-2-carboxamide] | 0.7813 | 0.0513 | 0.146 | 0.7813 | 1.00 | 1.563 | 1.563 | 3.125 | 0.214
4 | NCCS(=O)(=O)c1ccc(-c2cccc3ncccc23)c(-c2nn[nH]n2)c1S(N)(=O)=O [Example 324, 6-((2-aminoethyl)sulfonyl)-3-(quinolin-5-yl)-2-(2H-tetrazol-5-yl) benzenesulfonamide] | 0.7813 | 0.222 | 0.55 | 6.25 | 8.00 | 3.125 | 1.563 | 1.563 | 0.139
5 | CS(=O)(=O)Nc1nc2c(-c3ccc(S(=O)(=O)C4CCNCC4)c(S(N)(=O)=O)c3-c3nn[nH]n3)cccc2s1 [Example 325, 3-(2-(methylsulfonamido)benzo[d]thiazol-4-yl)-6-(piperidin-4-ylsulfonyl)-2-(2H-tetrazol-5-yl)benzenesulfonamide] | 6.25 | 0.0723 | 0.239 | 6.25 | 1.00 | 25 | 12.5 | 12.5 | 0.346
6 | CN(C)CCS(=O)(=O)c1ccc(-c2cccc3sc(N)nc23)c(-c2nn[nH]n2)c1S(N)(=O)=O [Example 326, 3-(2-aminobenzo[d]thiazol-4-yl)-6-((2-(dimethylamino)ethyl)sulfonyl)-2-(2H-tetrazol-5-yl)benzenesulfonamide] | 1.563 | 0.0761 | 0.248 | 1.563 | 1.00 | 6.25 | 3.125 | 3.125 | 0.167
